{
  "source": "ChEMBL document CHEMBL3885861",
  "about": "“Open TG-GATES”",
  "species_on_record": "Rattus norvegicus",
  "experiment": "Open TG-GATES - Regimen: Daily Repeat",
  "assay_type": "toxicity, organism-based, Sprague-Dawley",
  "set-up": "regimen Daily Repeat, gender Male, age 6 weeks",
  "details": "in vivo, sc, 0 mg/kg, […], route subcutaneous injection, dose 0 ug/Kg, dose level Control; for KIDNEY_L / KIDNEY_R / KIDNEY_TOTAL: tissue Kidney; for LIVER: tissue Liver; for A/G / ALP / ALT / AST / BUN / CRE / Ca / Cl / DBIL / GLC / IP / K / LDH / Na / PL / RALB / TBIL / TC / TG / TP / gamma-GTP: tissue Plasma",
  "data": [
    {"compound": "CC(=O)O.N=C(N)NCCC[C@@H](NC(=O)[C@@H]1CCCN1C(=O)[C@@H]1CSSCCC(=O)N[C@@H](Cc2ccc(O)cc2)C(=O)N[C@@H](Cc2ccccc2)C(=O)N[C@@H](CCC(N)=O)C(=O)N[C@@H](CC(N)=O)C(=O)N1)C(=O)NCC(N)=O", "note": "[DESMOPRESSIN ACETATE]", "values": [
      {"measurement": "Lym", "setting": "tissue Blood, time 28 day", "result": 77.4, "unit": "%"},
      {"measurement": "MCH", "setting": "tissue Blood, time 28 day", "result": 19, "unit": "pg"},
      {"measurement": "MCHC", "setting": "tissue Blood, time 28 day", "result": 32.8, "unit": "%"},
      {"measurement": "MCV", "setting": "tissue Blood, time 28 day", "result": 58.1, "unit": "fL"},
      {"measurement": "Mono", "setting": "tissue Blood, time 28 day", "result": 6.6, "unit": "%"},
      {"measurement": "Neu", "setting": "tissue Blood, time 28 day", "result": 14.8, "unit": "%"},
      {"measurement": "PT", "setting": "tissue Blood, time 28 day", "result": 12.3, "unit": "s"},
      {"measurement": "Plat", "setting": "tissue Blood, time 28 day", "result": 113, "unit": "x10_4/uL"},
      {"measurement": "RBC", "setting": "tissue Blood, time 28 day", "result": 797.2, "unit": "x10_4/ul"},
      {"measurement": "Ret", "setting": "tissue Blood, time 28 day", "result": 3.1, "unit": "%"},
      {"measurement": "WBC", "setting": "tissue Blood, time 28 day", "result": 130.4, "unit": "x10_2/uL"},
      {"measurement": "KIDNEY_L", "setting": "time 7 day", "result": 1.1, "unit": "g"},
      {"measurement": "KIDNEY_R", "setting": "time 7 day", "result": 1.1, "unit": "g"},
      {"measurement": "KIDNEY_TOTAL", "setting": "time 7 day", "result": 2.2, "unit": "g"},
      {"measurement": "KIDNEY_L", "setting": "time 14 day", "result": 1.3, "unit": "g"},
      {"measurement": "KIDNEY_R", "setting": "time 14 day", "result": 1.3, "unit": "g"},
      {"measurement": "KIDNEY_TOTAL", "setting": "time 14 day", "result": 2.6, "unit": "g"},
      {"measurement": "KIDNEY_L", "setting": "time 28 day", "result": 1.5, "unit": "g"},
      {"measurement": "KIDNEY_R", "setting": "time 28 day", "result": 1.5, "unit": "g"},
      {"measurement": "KIDNEY_TOTAL", "setting": "time 28 day", "result": 2.9, "unit": "g"},
      {"measurement": "LIVER", "setting": "time 7 day", "result": 12.4, "unit": "g"},
      {"measurement": "LIVER", "setting": "time 14 day", "result": 14.3, "unit": "g"},
      {"measurement": "LIVER", "setting": "time 28 day", "result": 15.3, "unit": "g"},
      {"measurement": "A/G", "setting": "time 7 day", "result": 1.9},
      {"measurement": "ALP", "setting": "time 7 day", "result": 1187.4, "unit": "IU/L"},
      {"measurement": "ALT", "setting": "time 7 day", "result": 30.2, "unit": "IU/L"},
      {"measurement": "AST", "setting": "time 7 day", "result": 68.8, "unit": "IU/L"},
      {"measurement": "BUN", "setting": "time 7 day", "result": 16.2, "unit": "mg/dL"},
      {"measurement": "CRE", "setting": "time 7 day", "result": 0.4, "unit": "mg/dL"},
      {"measurement": "Ca", "setting": "time 7 day", "result": 13.7, "unit": "mg/dL"},
      {"measurement": "Cl", "setting": "time 7 day", "result": 99.2, "unit": "meq/L"},
      {"measurement": "DBIL", "setting": "time 7 day", "result": 0.014, "unit": "mg/dL"},
      {"measurement": "GLC", "setting": "time 7 day", "result": 197.2, "unit": "mg/dL"},
      {"measurement": "IP", "setting": "time 7 day", "result": 7.4, "unit": "mg/dL"},
      {"measurement": "K", "setting": "time 7 day", "result": 5.1, "unit": "meq/L"},
      {"measurement": "LDH", "setting": "time 7 day", "result": 157.8, "unit": "IU/L"},
      {"measurement": "Na", "setting": "time 7 day", "result": 130.2, "unit": "meq/L"},
      {"measurement": "PL", "setting": "time 7 day", "result": 165, "unit": "mg/dL"},
      {"measurement": "RALB", "setting": "time 7 day", "result": 3.6, "unit": "g/dL"},
      {"measurement": "TBIL", "setting": "time 7 day", "result": 0.048, "unit": "mg/dL"},
      {"measurement": "TC", "setting": "time 7 day", "result": 86.8, "unit": "mg/dL"},
      {"measurement": "TG", "setting": "time 7 day", "result": 171, "unit": "mg/dL"},
      {"measurement": "TP", "setting": "time 7 day", "result": 5.5, "unit": "g/dL"},
      {"measurement": "gamma-GTP", "setting": "time 7 day", "result": 1, "unit": "IU/L"},
      {"measurement": "A/G", "setting": "time 14 day", "result": 1.7},
      {"measurement": "ALP", "setting": "time 14 day", "result": 1208.4, "unit": "IU/L"},
      {"measurement": "ALT", "setting": "time 14 day", "result": 31, "unit": "IU/L"},
      {"measurement": "AST", "setting": "time 14 day", "result": 67.8, "unit": "IU/L"},
      {"measurement": "BUN", "setting": "time 14 day", "result": 16.2, "unit": "mg/dL"},
      {"measurement": "CRE", "setting": "time 14 day", "result": 0.4, "unit": "mg/dL"},
      {"measurement": "Ca", "setting": "time 14 day", "result": 11.1, "unit": "mg/dL"},
      {"measurement": "Cl", "setting": "time 14 day", "result": 106.2, "unit": "meq/L"},
      {"measurement": "DBIL", "setting": "time 14 day", "result": 0.01, "unit": "mg/dL"},
      {"measurement": "GLC", "setting": "time 14 day", "result": 194.2, "unit": "mg/dL"},
      {"measurement": "IP", "setting": "time 14 day", "result": 6.9, "unit": "mg/dL"},
      {"measurement": "K", "setting": "time 14 day", "result": 5.2, "unit": "meq/L"},
      {"measurement": "LDH", "setting": "time 14 day", "result": 149, "unit": "IU/L"},
      {"measurement": "Na", "setting": "time 14 day", "result": 138.6, "unit": "meq/L"},
      {"measurement": "PL", "setting": "time 14 day", "result": 166, "unit": "mg/dL"},
      {"measurement": "RALB", "setting": "time 14 day", "result": 3.8, "unit": "g/dL"},
      {"measurement": "TBIL", "setting": "time 14 day", "result": 0.026, "unit": "mg/dL"},
      {"measurement": "TC", "setting": "time 14 day", "result": 91.4, "unit": "mg/dL"},
      {"measurement": "TG", "setting": "time 14 day", "result": 136.8, "unit": "mg/dL"},
      {"measurement": "TP", "setting": "time 14 day", "result": 6, "unit": "g/dL"},
      {"measurement": "gamma-GTP", "setting": "time 14 day", "result": 0.8, "unit": "IU/L"},
      {"measurement": "A/G", "setting": "time 28 day", "result": 1.5},
      {"measurement": "ALP", "setting": "time 28 day", "result": 865.8, "unit": "IU/L"},
      {"measurement": "ALT", "setting": "time 28 day", "result": 27.8, "unit": "IU/L"},
      {"measurement": "AST", "setting": "time 28 day", "result": 67.6, "unit": "IU/L"},
      {"measurement": "BUN", "setting": "time 28 day", "result": 14.6, "unit": "mg/dL"},
      {"measurement": "CRE", "setting": "time 28 day", "result": 0.4, "unit": "mg/dL"},
      {"measurement": "Ca", "setting": "time 28 day", "result": 8.9, "unit": "mg/dL"},
      {"measurement": "Cl", "setting": "time 28 day", "result": 106, "unit": "meq/L"},
      {"measurement": "DBIL", "setting": "time 28 day", "result": 0.01, "unit": "mg/dL"},
      {"measurement": "GLC", "setting": "time 28 day", "result": 184.8, "unit": "mg/dL"},
      {"measurement": "IP", "setting": "time 28 day", "result": 6.2, "unit": "mg/dL"},
      {"measurement": "K", "setting": "time 28 day", "result": 4.9, "unit": "meq/L"},
      {"measurement": "LDH", "setting": "time 28 day", "result": 154.2, "unit": "IU/L"},
      {"measurement": "Na", "setting": "time 28 day", "result": 139.2, "unit": "meq/L"},
      {"measurement": "PL", "setting": "time 28 day", "result": 126.4, "unit": "mg/dL"},
      {"measurement": "RALB", "setting": "time 28 day", "result": 3.6, "unit": "g/dL"},
      {"measurement": "TBIL", "setting": "time 28 day", "result": 0.038, "unit": "mg/dL"},
      {"measurement": "TC", "setting": "time 28 day", "result": 63.6, "unit": "mg/dL"},
      {"measurement": "TG", "setting": "time 28 day", "result": 120.6, "unit": "mg/dL"},
      {"measurement": "TP", "setting": "time 28 day", "result": 6, "unit": "g/dL"},
      {"measurement": "gamma-GTP", "setting": "time 28 day", "result": 0.6, "unit": "IU/L"}
    ]}
  ]
}
